Experiment [1] has as its target T1, SARS-CoV-2 PLpro (nsp3 1564–1878) (Severe acute respiratory syndrome coronavirus 2, UniProt P0DTD1). Kind of experiment: biochemical. More on the design: FRET-quenched peptide (Pro3) cleavage by PLpro, 10 min pre-incubation, slope over 20 min, normalised to no-compound control. The following applies: high concentration screen, read-out: % of control remaining.
Experiment [2] addresses T1, SARS-CoV-2 PLpro (nsp3 1564–1878). Put plainly: biochemical. Particulars: low concentration screen, read-out: % of control remaining. More on the design: FRET-quenched peptide (Pro3) cleavage by PLpro, 10 min pre-incubation, slope over 20 min, normalised to no-compound control.

Structures can show the parent of a compound that is named as a salt. Where two headings read alike, the source gives them in different places.

For the molecule `CC1(C)CCC=[N+]1[O-]` [5,5-Dimethyl-1-pyrroline-N-oxide], in experiment [1] (Well no.=501), the remaining activity at 3.75 µM is 97.1%. In experiment [2] (Well no.=501), the remaining activity at 1.25 µM was found to be 97%.
In the case of `O=C1NC(=O)C(c2ccccc2)(c2ccccc2)N1` [5,5-Diphenylhydantoin], in experiment [1] (Well no.=641), the remaining activity at 3.75 µM was determined as 98.3%. Moreover, the remaining activity at 1.25 µM in experiment [2] (Well no.=641) came out at 99.8%.
Take `COc1cc(/C=C/c2ccccc2)oc(=O)c1` [5,6-Dehydrokawain]: the remaining activity at 3.75 µM in experiment [1] (Well no.=3559) worked out at 103%. Further, the remaining activity at 1.25 µM in experiment [2] (Well no.=3559) turned out to be 105%.
Turning to `CCCCC/C=C\C/C=C\C/C=C\C[C@H]1O[C@H]1CCCC(=O)O` [5,6-Epoxyeicosatrienoic acid], in experiment [1] (Well no.=4383), the remaining activity at 3.75 µM came out at 103%. In addition, the remaining activity at 1.25 µM in experiment [2] (Well no.=4383) is 105%.
With `O=C(O)c1cc(=O)c2c(Cl)cc(Cl)cc2[nH]1` [5,7-Dichlorokynurenic acid], the remaining activity at 3.75 µM in experiment [1] (Well no.=546) came to 97.5%. The remaining activity at 1.25 µM in experiment [2] (Well no.=546) came to 95.2%.
For the molecule `COc1c(O)cc2oc(-c3ccc(O)cc3)cc(=O)c2c1O` [5,7-dihydroxy-2-(4-hydroxyphenyl)-6-methoxy-4H-chromen-4-one], the remaining activity at 3.75 µM in experiment [1] (Well no.=5542) was found to be 102%. Moreover, the remaining activity at 1.25 µM in experiment [2] (Well no.=5542) is 101%.
For the molecule `CCCCCC#CCC#CCC#CCC#CCCCC(=O)O` [5,8,11,14-Eicosatetraynoic acid], in experiment [1] (Well no.=4472), the remaining activity at 3.75 µM is 97.4%. Further, the remaining activity at 1.25 µM in experiment [2] (Well no.=4472) worked out at 98.7%.
As to `CCCCCCCCC#CCC#CCC#CCCCC(=O)O` [5,8,11-Eicosatriynoic acid], the figures for the remaining activity at 3.75 µM in experiment [1] (Well no.=411) and in experiment [1] (Well no.=4470) were 97.5% and 92.3%, respectively. The remaining activity at 1.25 µM in experiment [2] (Well no.=411) is 101%; in experiment [2] (Well no.=4470) it was 96.8%.
For the molecule `CN(C)C(=O)Oc1cc(OC(=O)N(C)C)cc(C(O)CNC(C)(C)C)c1` (stereo not drawn) [5-(2-(tert-butylamino)-1-hydroxyethyl)-1,3-phenylene bis(dimethylcarbamate) hydrochloride], the remaining activity at 3.75 µM in experiment [1] (Well no.=5871) was 103%. Besides, the remaining activity at 1.25 µM in experiment [2] (Well no.=5871) was determined as 104%.
In the case of `O=C1OC(CN2CCOCC2)CN1/N=C/c1ccc([N+](=O)[O-])o1` (stereo not drawn) [5-(4-morpholinylmethyl)-3-{[(E)-(5-nitro-2-furyl)methylidene]amino}-1,3-oxazolidin-2-one], the remaining activity at 3.75 µM in experiment [1] (Well no.=6079) came to 98.7%. For the same molecule, the remaining activity at 1.25 µM in experiment [2] (Well no.=6079) is 99.9%.
For the molecule `c1cc(-c2cnn3cc(-c4ccc(N5CCNCC5)cc4)cnc23)c2cccnc2c1` [5-(6-(4-(piperazin-1-yl)phenyl)pyrazolo[1,5-a]pyrimidin-3-yl)quinoline], the remaining activity at 3.75 µM in experiment [1] (Well no.=6009) was 101%. For the same molecule, in experiment [2] (Well no.=6009), the remaining activity at 1.25 µM turned out to be 104%.
Regarding `FC(F)(F)c1ccc(CNc2ccc(Cc3c[nH]c4ncccc34)cn2)cc1` [5-((1H-pyrrolo[2,3-b]pyridin-3-yl)methyl)-N-(4-(trifluoromethyl)benzyl)pyridin-2-amine], the remaining activity at 3.75 µM in experiment [1] (Well no.=6012) was determined as 102%. Also, the remaining activity at 1.25 µM in experiment [2] (Well no.=6012) is 104%.
In the case of `CN(C)c1nc(N)c(C(=O)NC(=N)N)nc1Cl` [5-(N,N-Dimethyl)amiloride hydrochloride], the remaining activity at 3.75 µM in experiment [1] (Well no.=63) was 99%. Moreover, the remaining activity at 1.25 µM in experiment [2] (Well no.=63) was found to be 102%.
With `NC(N)=NC(=O)c1nc(Cl)c(N2CCCCCC2)nc1N` [5-(N,N-hexamethylene)amiloride], the remaining activity at 3.75 µM in experiment [1] (Well no.=106) worked out at 104%. Moreover, the remaining activity at 1.25 µM in experiment [2] (Well no.=106) came to 104%.
In the case of `CCN(c1nc(N)c(C(=O)NC(=N)N)nc1Cl)C(C)C` [5-(N-Ethyl-N-isopropyl)amiloride], in experiment [1] (Well no.=203), the remaining activity at 3.75 µM is 97.3%. Moreover, the remaining activity at 1.25 µM in experiment [2] (Well no.=203) worked out at 99.7%.
Consider `CC(C)CN(C)c1nc(N)c(C(=O)N=C(N)N)nc1Cl` [5-(N-Methyl-N-isobutyl)amiloride], for which the remaining activity at 3.75 µM in experiment [1] (Well no.=209) came to 100%. Besides, in experiment [2] (Well no.=209), the remaining activity at 1.25 µM turned out to be 99.9%.
As for `O=C1NC(=O)C(Cc2ccc3cc(OCc4ccccc4F)ccc3c2)S1` (stereo not drawn) [5-({6-[(2-fluorobenzyl)oxy]-2-naphthyl}methyl)-1,3-thiazolidine-2,4-dione], in experiment [1] (Well no.=5872), the remaining activity at 3.75 µM was 97.8%. Further, in experiment [2] (Well no.=5872), the remaining activity at 1.25 µM was 104%.
Regarding `NC(=O)c1[nH]cnc1N` [5-Amino-3H-imidazole-4-Carboxamide], in experiment [1] (Well no.=7449), the remaining activity at 3.75 µM was 104%. The remaining activity at 1.25 µM in experiment [2] (Well no.=7449) came to 103%.
`Nc1ccc(O)c(C(=O)O)c1` [5-Aminosalicylic acid]: the remaining activity at 3.75 µM in experiment [1] (Well no.=2121) was 104%. Further, the remaining activity at 1.25 µM in experiment [2] (Well no.=2121) was found to be 105%.
Take `NCCCCC(=O)O` [5-Aminovaleric acid hydrochloride]: the remaining activity at 3.75 µM in experiment [1] (Well no.=147) came out at 101%. The remaining activity at 1.25 µM in experiment [2] (Well no.=147) was determined as 103%.
As to `O=c1[nH]c(=O)n([C@H]2C[C@H](O)[C@@H](CO)O2)cc1Br` [5-BrdU], in experiment [1] (Well no.=7862), the remaining activity at 3.75 µM turned out to be 97.6%. In addition, in experiment [2] (Well no.=7862), the remaining activity at 1.25 µM is 96%.
As for `O=c1[nH]c(=O)n([C@H]2C[C@H](O)[C@@H](CO)O2)cc1Br` [5-Bromo-2'-deoxyuridine], in experiment [1] (Well no.=269), the remaining activity at 3.75 µM amounted to 98.4%. Further, the remaining activity at 1.25 µM in experiment [2] (Well no.=269) was 95.6%.
As for `NCCc1c[nH]c2ccc(C(N)=O)cc12` [5-Carboxamidotryptamine maleate], in experiment [1] (Well no.=533), the remaining activity at 3.75 µM is 104%. In addition, in experiment [2] (Well no.=533), the remaining activity at 1.25 µM is 104%.
With `O=c1[nH]c(=O)n([C@H]2C[C@H](O)[C@@H](CO)O2)cc1Cl` [5-Chloro-2'-deoxyuridine], in experiment [1] (Well no.=7814), the remaining activity at 3.75 µM came out at 102%. In addition, in experiment [2] (Well no.=7814), the remaining activity at 1.25 µM came out at 101%.
On to `O=C(O)c1cc2cc(F)ccc2[nH]1` [5-Fluoroindole-2-carboxylic acid], for which the remaining activity at 3.75 µM in experiment [1] (Well no.=339) came out at 97.9%. In addition, the remaining activity at 1.25 µM in experiment [2] (Well no.=339) is 99.4%.
As for `O=c1[nH]cc(F)c(=O)[nH]1` [5-Fluorouracil], the remaining activity at 3.75 µM was 98.8% in experiment [1] (Well no.=661) and 98.2% in experiment [1] (Well no.=2116). The remaining activity at 1.25 µM in experiment [2] (Well no.=661) amounted to 97.2%; in experiment [2] (Well no.=2116), 95.8%.
Regarding `O=c1[nH]c(=O)n([C@@H]2O[C@H](CO)[C@@H](O)[C@H]2O)cc1F` [5-Fluorouridine], the remaining activity at 3.75 µM in experiment [1] (Well no.=7900) was determined as 91.5%. Also, the remaining activity at 1.25 µM in experiment [2] (Well no.=7900) came to 95.4%.
For `N[C@@H](Cc1c[nH]c2ccc(O)cc12)C(=O)O` [5-Hydroxy-L-tryptophan], the remaining activity at 3.75 µM in experiment [1] (Well no.=712) amounted to 98.5%. In experiment [2] (Well no.=712), the remaining activity at 1.25 µM came to 91.8%.
As for `O=C(O)Cc1c[nH]c2ccc(O)cc12` [5-Hydroxyindolacetic acid], the remaining activity at 3.75 µM in experiment [1] (Well no.=758) amounted to 92.8%. The remaining activity at 1.25 µM in experiment [2] (Well no.=758) worked out at 91.7%.
Take `O=C(O)Cc1c[nH]c2ccc(O)cc12` [5-Hydroxyindole-3-acetic acid]: the remaining activity at 3.75 µM in experiment [1] (Well no.=5974) turned out to be 101%; in experiment [1] (Well no.=7351), 102%. In addition, the figures for the remaining activity at 1.25 µM in experiment [2] (Well no.=5974) and in experiment [2] (Well no.=7351) were 102% and 103%, respectively.
